Laboratory results reported in US12357630B2, “Ceritinib formulation” (Novartis AG, priority 2014, dated 2025).
Values after ≈ are worked out from the molar mass of the structure shown.

What was measured:
Solubility in water = type: physicochemical; settings: 25° C.
Experimental: (§1) Ceritinib is a difficult compound to formulate. […] In addition, physical characteristics of Ceritinib cause sticking and picking during tableting or encapsulation of the drug and make it poorly compressible. Furthermore, the drug is administered at a high dose of 750 mg, which would require a patient to take daily up to 5 units of 150 mg. If the dose is to be increased in a respective dosage form, the increase in drug load generally negatively affects the compressibility of a tablet. Ceritinib's sticky nature causes a high drug load to further negatively influence the manufacturing of tablets due to enhanced sticking/picking.

[1] = Permeability / Biopharmaceutics Classification System; type: in vitro ADME
Experimental: as §1

solubility (Solubility in water): 0.02 mg/mL (≈ 35.8 µM)
permeability [1]: low permeability
SMILES: Cc1cc(Nc2ncc(Cl)c(Nc3ccccc3S(=O)(=O)C(C)C)n2)c(OC(C)C)cc1C1CCNCC1 [Ceritinib, 5-chloro-N^2-(2-isopropoxy-5-methyl-4-(piperidin-4-yl)phenyl)-N^4-[2-(propane-2-sulfonyl)-phenyl]-pyrimidine-2,4-diamine]
